The values below come from ChEMBL document CHEMBL2429729, “Synthesis, biological evaluation, and molecular modeling of (E)-2-aryl-5-styryl-1,3,4-oxadiazole derivatives as acetylcholine esterase inhibitors” (Med Chem Res, 2013).

Each structure is given as a SMILES string.

In the test the target is Acetylcholinesterase (Electrophorus electricus, UniProt O42275). The experiment in a line: Inhibition of electric eel AChE using acetylthiocholine as substrate incubated for 20 mins prior to substrate addition measured every 30 secs for 4 mins by Ellman's method.
Acetylcholinesterase, sequence (O42275 whole entry): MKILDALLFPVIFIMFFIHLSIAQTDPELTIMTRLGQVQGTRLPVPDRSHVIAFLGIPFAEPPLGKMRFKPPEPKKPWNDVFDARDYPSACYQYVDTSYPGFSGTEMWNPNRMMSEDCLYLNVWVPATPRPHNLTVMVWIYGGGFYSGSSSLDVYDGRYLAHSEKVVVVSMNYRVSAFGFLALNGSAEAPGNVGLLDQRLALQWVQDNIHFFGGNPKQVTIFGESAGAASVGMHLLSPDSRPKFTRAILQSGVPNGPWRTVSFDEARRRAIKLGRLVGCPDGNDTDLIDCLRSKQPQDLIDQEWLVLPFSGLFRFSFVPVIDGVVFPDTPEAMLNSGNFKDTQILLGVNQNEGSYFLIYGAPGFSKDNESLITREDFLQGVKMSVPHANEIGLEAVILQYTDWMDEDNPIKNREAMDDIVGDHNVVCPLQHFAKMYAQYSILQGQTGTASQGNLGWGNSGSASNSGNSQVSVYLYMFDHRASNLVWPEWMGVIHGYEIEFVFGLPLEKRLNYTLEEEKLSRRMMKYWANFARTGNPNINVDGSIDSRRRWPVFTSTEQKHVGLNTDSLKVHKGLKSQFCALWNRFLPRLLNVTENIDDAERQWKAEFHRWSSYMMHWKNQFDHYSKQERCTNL

As to `COc1cc(/C=C/c2nnc(-c3cccnc3)o2)cc(OC)c1OC`, inhibition was half-maximal at 65 µM (IC50).
With `COc1cc(/C=C/c2nnc(-c3cncc(Br)c3)o2)cc(OC)c1OC` the figure was 62.8 µM.
With `COc1ccc(-c2nnc(/C=C/c3cc(OC)c(OC)c(OC)c3)o2)cc1` the figure was 61.2 µM; with `O=[N+]([O-])c1cccc(-c2nnc(/C=C/c3ccc4c(c3)OCO4)o2)c1`, 49.4 µM; with `Clc1ccccc1-c1nnc(/C=C/c2ccc3c(c2)OCO3)o1`, 47.4 µM.
The compound `O=[N+]([O-])c1ccc(-c2nnc(/C=C/c3ccc4c(c3)OCO4)o2)cc1` yielded an IC50 of 37.6 µM.
`COc1cc(-c2nnc(/C=C/c3ccc4c(c3)OCO4)o2)cc(OC)c1OC` showed an IC50 of 48.6 µM.
For `COc1ccc(-c2nnc(/C=C/c3ccc4c(c3)OCO4)o2)cc1OC`, inhibition was half-maximal at 40.5 µM (IC50).
As for `Clc1ccc(-c2nnc(/C=C/c3ccc4c(c3)OCO4)o2)c(Cl)c1`, the IC50 was 50.3 µM.
In turn, `Fc1ccc(-c2nnc(/C=C/c3ccc4c(c3)OCO4)o2)cc1Cl` yielded an IC50 of 49.6 µM.
In turn, `Brc1cncc(-c2nnc(/C=C/c3ccc4c(c3)OCO4)o2)c1` displayed an IC50 of 52.5 µM.
With `C(=C\c1nnc(-c2ccccc2)o1)/c1ccc2c(c1)OCO2` the figure was 50.1 µM; with `Brc1ccccc1-c1nnc(/C=C/c2ccc3c(c2)OCO3)o1`, 40.2 µM.
With `Fc1ccc(-c2nnc(/C=C/c3ccc4c(c3)OCO4)o2)c(Cl)c1` the figure was 19.6 µM; with `Clc1ncccc1-c1nnc(/C=C/c2ccc3c(c2)OCO3)o1`, 54.3 µM; with `Cc1ccc(-c2nnc(/C=C/c3ccc4c(c3)OCO4)o2)cc1`, 45.3 µM.
For the compound `C(=C\c1nnc(-c2cccnc2)o1)/c1ccc2c(c1)OCO2`, the midpoint of inhibition, the IC50, lay at 48.5 µM.
With `COc1ccc(-c2nnc(/C=C/c3ccc4c(c3)OCO4)o2)cc1` the figure was 42.8 µM.
With `COc1cc(/C=C/c2nnc(-c3ccccc3)o2)cc(OC)c1OC` the figure was 24.9 µM; with `COc1cc(/C=C/c2nnc(-c3ccc(C)cc3)o2)cc(OC)c1OC`, 60.2 µM.
With `COc1cc(/C=C/c2nnc(-c3ccc(Cl)cc3Cl)o2)cc(OC)c1OC` the figure was 62.2 µM; with `COc1cc(/C=C/c2nnc(-c3cccnc3Cl)o2)cc(OC)c1OC`, 61.2 µM; with `COc1cc(/C=C/c2nnc(-c3ccccc3Br)o2)cc(OC)c1OC`, 64.9 µM.
As for `COc1cc(/C=C/c2nnc(-c3cc4ccccc4o3)o2)cc(OC)c1OC`, the IC50 was determined as 60.4 µM.
With `COc1cc(/C=C/c2nnc(-c3ccco3)o2)cc(OC)c1OC` the figure was 13.7 µM; with `COc1cc(/C=C/c2nnc(-c3ccc([N+](=O)[O-])cc3)o2)cc(OC)c1OC`, 49 µM.
With `COc1cc(/C=C/c2nnc(-c3cc(OC)c(OC)c(OC)c3)o2)cc(OC)c1OC` the figure was 61.5 µM; with `COc1cc(/C=C/c2nnc(-c3cccc([N+](=O)[O-])c3)o2)cc(OC)c1OC`, 65.8 µM.
With `COc1cc(/C=C/c2nnc(-c3ccccc3Cl)o2)cc(OC)c1OC` the figure was 58.1 µM; with `COc1cc(/C=C/c2nnc(-c3ccc(F)cc3Cl)o2)cc(OC)c1OC`, 60.2 µM.
